In one assay the test system is DC-3F/AD. Put plainly: Cytotoxicity: reversal of resistance to actinomycin D (reversion factor), line DC-3F/AD. It is filed as cell-based, Chinese hamster. As to the method: The parameter measured is the cytotoxicity of the antitumour drug, quantified in the absence and in the presence of the reversing compound. Two resistant cell lines were used: 1 Chinese hamster lung line, DC-3F/AD, the resistance of which was induced by actinomycin D. […] The compounds tested for their capacity to reverse the resistance are added at the same time as the cytotoxic agent. The cells are then incubated for 4 days.

Assay [1] concerns KB-A1. Nature of the assay: Cytotoxicity: reversal of resistance to adriamycin (reversion factor), line KB-A1. It counts as cell-based, Human. As to the method: The parameter measured is the cytotoxicity of the antitumour drug, quantified in the absence and in the presence of the reversing compound. […] The compounds tested for their capacity to reverse the resistance are added at the same time as the cytotoxic agent. The cells are then incubated for 4 days.

In assay [2] the test system is KB-A1. Put plainly: Flow cytometry: intracellular accumulation of ADR, line KB-A1. It is filed as cell-based, Human. The settings on record: ADR 50 μM, 5 hours. As to the method:
Also measured was the effect of the compounds on the intracellular concentration of adriamycin. […] By measuring that fluorescence, it is thus possible to obtain a relative measurement of the intracellular concentration of ADR. […] The cells (5×10^5 per ml) were exposed simultaneously to ADR at a fixed concentration (50 μM) and to the tested compounds at various concentrations. After 5 hours' incubation, the intracellular accumulation of ADR was evaluated by FCM. […] The results were presented in the form of linear histograms of the intracellular ADR fluorescence. Expression of the results: for each of the histograms the mean fluorescence per channel (MEAN) was determined by the computer of the apparatus. For all experiments: a negative control (cells without ADR) fixed the autofluorescence threshold. a positive control (cells with ADR) determined the MEAN value=MN1. the "test" tubes (cells with ADR and with compound) were used to determine, for each of the compounds and at each of the concentrations, the MEAN values=MN2. The results are expressed in the form of variations from the mean fluorescence obtained for each of the "test" tubes (MN2) in relation to the mean fluorescence obtained with the positive control (MN1): VAR-MEAN=MN2-MN1. The measured parameter is thus the increase in ADR fluorescence in the presence of the tested compounds.
On the technique in general: A flow cytometer gives signals particle by particle.

For `CCOC(=O)C1=C(COCCOCCNCc2cccc([N+](=O)[O-])c2)NC(C)=C(C(=O)OC)C1c1cccc(Cl)c1Cl` (stereo not drawn) [Example 2, d-2-{[2-(2-(N-m-nitrobenzylamino)ethoxy)ethoxy]methyl}-4-(2,3-dichlorophenyl)-3-ethoxycarbonyl-5-methoxycarbonyl-6-methyl-1,4-dihydropyridine], the “reversion factor (RF)” value with DC-3F/AD (compound 1 μM) is given as 1.5; with DC-3F/AD (compound 5 μM), 1,478.2; with KB-A1 [1] (compound 1 μM), 2.2; in the assay with KB-A1 [1] (compound 5 μM), 389.5.

As for `CCOC(=O)C1=C(COCCOCCNCc2cccc(F)c2)NC(C)=C(C(=O)OC)C1c1cccc(Cl)c1Cl` (stereo not drawn) [Example 5, d-2-{[2-(2-(N-m-fluorobenzylamino)ethoxy)ethoxy]methyl}-4-(2,3-dichlorophenyl)-3-ethoxycarbonyl-5-methoxycarbonyl-6-methyl-1,4-dihydropyridine], the “reversion factor (RF)” value in the assay with DC-3F/AD (compound 1 μM) is 7.6; in the assay on DC-3F/AD (compound 5 μM) it was 3,567.0; in the assay with KB-A1 [1] (compound 1 μM), 13.2; in the assay on KB-A1 [1] (compound 5 μM) it was 225.8.

In the case of `CCOC(=O)C1=C(COCCOCCNCc2ccccc2F)NC(C)=C(C(=O)OC)C1c1cccc(Cl)c1Cl` (stereo not drawn) [Example 6, d-2-{[2-(2-(N-o-fluorobenzylamino)ethoxy)ethoxy]methyl}-4-(2,3-dichlorophenyl)-3-ethoxycarbonyl-5-methoxycarbonyl-6-methyl-1,4-dihydropyridine], the “reversion factor (RF)” value was 9.6 with DC-3F/AD (compound 1 μM), 4,340.9 in the assay with DC-3F/AD (compound 5 μM), 15.2 in the assay with KB-A1 [1] (compound 1 μM) and 159.1 with KB-A1 [1] (compound 5 μM).

Consider `CCOC(=O)C1=C(COCCOCCNCc2ccc(SC)cc2)NC(C)=C(C(=O)OC)C1c1cccc(Cl)c1Cl` (stereo not drawn) [Example 9, d-2-{[2-(2-(N-p-methylthiobenzylamino)ethoxy)ethoxy]methyl}-4-(2,3-dichlorophenyl)-3-ethoxycarbonyl-5-methoxycarbonyl-6-methyl-1,4-dihydropyridine], for which the “reversion factor (RF)” value with DC-3F/AD (compound 1 μM) is 1.2; in the assay on DC-3F/AD (compound 5 μM), 560.3; with KB-A1 [1] (compound 1 μM), 2.4; in the assay with KB-A1 [1] (compound 5 μM), 99.0.

In the case of `CCOC(=O)C1=C(COCCOCCNCc2cccs2)NC(C)=C(C(=O)OC)C1c1cccc(Cl)c1Cl` (stereo not drawn) [Example 13, d-2-{[2-(2-(N-thien-2-ylmethylamino)ethoxy)ethoxy]methyl)-4-(2,3-dichlorophenyl)-3-ethoxycarbonyl-5-methoxycarbonyl-6-methyl-1,4-dihydropyridine], the “reversion factor (RF)” value is given as 19.4 in the assay on DC-3F/AD (compound 1 μM), 4,141.7 with DC-3F/AD (compound 5 μM), 12.3 in the assay on KB-A1 [1] (compound 1 μM) and 165.1 in the assay on KB-A1 [1] (compound 5 μM).

In the case of `COC(=O)C1=C(C)NC(C)=C(C(=O)OC)C1c1ccccc1[N+](=O)[O-]` [NIFEDIPINE, nifedipine, reference compound], the “increase in the ADR fluorescence (VAR-MEAN)” value in the assay on KB-A1 [2] (compound 1 μM), in the assay with KB-A1 [2] (compound 5 μM) and in the assay with KB-A1 [2] (compound […]) was 0.0 in each case.

These data come from patent US5389644A, “1,4-dihydropyridine compounds” (priority 1992, dated 1995).
